Measured values taken from US12077503B2, “Substituted cyclic amides and their use as herbicides” (FMC CORPORATION, priority 2015, dated 2024).

Tests used:
Type in all cases: in vivo
[1] = system: Kochia (Kochia scoparia); assay: Test A preemergence
Outline: (§1)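 Seeded soil received test chemicals as a preemergence directed spray, and seedlings at one to two leaves, 2–10 cm tall, received them postemergence, in a non-phytotoxic, surfactant-containing solvent mixture. Pots were held in a greenhouse for approximately 10 d, then rated for injury from 0, no effect, to 100, complete control.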

[2] = system: barnyardgrass (Echinochloa crus-galli); assay: Test A preemergence
Outline: as §1

[3] = system: giant foxtail (Setaria faberii); assay: Test A preemergence
Outline: as §1

[4] = system: pigweed (Amaranthus retroflexus); assay: Test A preemergence; settings: for Plant response rating, Pigweed: preemergence
[5] = system: ragweed (common ragweed, Ambrosia elatior); assay: Test A preemergence; settings: for Plant response rating, Ragweed: preemergence
Outline: as §1

[6] = system: ryegrass, Italian (Italian ryegrass, Lolium multiflorum); assay: Test A preemergence; settings: for Plant response rating, Ryegrass, Italian: preemergence
Outline: as §1

[7] = system: Galium (catchweed bedstraw, Galium aparine); assay: Test A postemergence; settings: postemergence; for Galium plant response rating: visual injury rating on 0 to 100 scale (0 no effect, 100 complete control)
Outline: as §1

[8] = system: Kochia (Kochia scoparia); assay: Test A postemergence; settings: postemergence; for Kochia plant response rating: visual injury rating on 0 to 100 scale (0 no effect, 100 complete control)
Outline: as §1

[9] = system: barnyardgrass (Echinochloa crus-galli); assay: Test A postemergence
Outline: as §1

[10] = system: blackgrass (Alopecurus myosuroides); assay: Test A postemergence
Outline: as §1

[11] = system: corn (Zea mays); assay: Test A postemergence; settings: postemergence; for Corn plant response rating: visual injury rating on 0 to 100 scale (0 no effect, 100 complete control)
Outline: as §1

[12] = system: giant foxtail (Setaria faberii); assay: Test A postemergence; settings: postemergence; for Foxtail, Giant plant response rating: visual injury rating on 0 to 100 scale (0 no effect, 100 complete control)
Outline: as §1

[13] = system: pigweed (Amaranthus retroflexus); assay: Test A postemergence; settings: postemergence; for Pigweed plant response rating: visual injury rating on 0 to 100 scale (0 no effect, 100 complete control)
Outline: as §1

[14] = system: ragweed (common ragweed, Ambrosia elatior); assay: Test A postemergence; settings: postemergence; for Ragweed plant response rating: visual injury rating on 0 to 100 scale (0 no effect, 100 complete control)
Outline: as §1

[15] = system: ryegrass, Italian (Italian ryegrass, Lolium multiflorum); assay: Test A postemergence; settings: postemergence; for Ryegrass, Italian plant response rating: visual injury rating on 0 to 100 scale (0 no effect, 100 complete control)
Outline: as §1

[16] = system: wheat (Triticum aestivum); assay: Test A postemergence; settings: postemergence; for Wheat plant response rating: visual injury rating on 0 to 100 scale (0 no effect, 100 complete control)
Outline: as §1

[17] = system: barnyardgrass (Echinochloa crus-galli); assay: Test B flooded paddy test; settings: Flood, 0 to 100 scale where 0 is no effect and 100 is complete control, 13 to 15 d
Outline: (§2)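 Greenhouse paddy pots with 2-leaf stage plants received compound by direct addition to floodwater 3 cm deep, kept at that level. Scored visually at 13–15 d versus controls (0 no effect; 100 complete control).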

[18] = system: ducksalad (Heteranthera limosa); assay: Test B flooded paddy test; settings: Flood, 0 to 100 scale where 0 is no effect and 100 is complete control, 13 to 15 d
Outline: as §2

[19] = system: rice (Oryra sativa); assay: Test B flooded paddy test; settings: Flood, 0 to 100 scale where 0 is no effect and 100 is complete control, 13 to 15 d
Outline: as §2

[20] = system: sedge, umbrella (small-flower umbrella sedge, Cyperus difformis); assay: Test B flooded paddy test; settings: Flood, 0 to 100 scale where 0 is no effect and 100 is complete control, 13 to 15 d
Outline: as §2

[21] = system: pigweed (Amaranthus retroflexus); assay: Test C preemergence; settings: for Plant response rating, Pigweed: scale 0 to 100, 0 no effect, 100 complete control
Text: Seeds of plant species selected from blackgrass (Alopecurus myosuroides), ryegrass, Italian (Italian ryegrass, Lolium multiflorum), wheat (winter wheat, Triticum aestivum), Galium (catchweed bedstraw, Galium aparine), corn (Zea mays), crabgrass, large (large crabgrass, Digitaria sanguinalis), foxtail, giant (giant foxtail, Setaria faberii), johnsongrass (Sorghum halepense), lambsquarters (Chenopodium album), morningglory (Ipomoea coccinea), nutsedge, yellow (yellow nutsedge, Cyperus esculentus), pigweed (Amaranthus retroflexus), ragweed (common ragweed, Ambrosia elatior), soybean (Glycine max), barnyardgrass (Echinochloa crus-galli), oilseed rape (Brassica napus), waterhemp (common waterhemp, Amaranthus rudis) and velvetleaf (Abutilon theophrasti) were planted into a blend of loam soil and sand and treated preemergence with test chemicals formulated in a non-phytotoxic solvent mixture which included a surfactant.
At the same time, plants selected from these crop and weed species and also Kochia (Kochia scoparia), oat, wild (wild oat, Avena fatua), and chickweed (common chickweed, Stellaria media) were planted in pots containing Sunshine Redi-Earth® planting medium comprising spaghnum peat moss, vermiculite, starter nutrients and dolomitic limestone and treated with postemergence applications of test chemicals formulated in the same manner. Plants ranged in height from 2 to 18 cm (1- to 4-leaf stage) for postemergence treatments. Treated plants and controls were maintained in a greenhouse for 13 to 15 d, after which time all species were compared to controls and visually evaluated. Plant response ratings, summarized in Table C, are based on a scale of 0 to 100 where 0 is no effect and 100 is complete control. A dash (-) response means no test result.

[22] = 125 g ai/ha, Preemergence, visual injury after approximately 10 d, 0 to 100 scale where 0 is no effect and 100 is complete control
[23] = 500 g ai/ha, preemergence, 0 to 100 scale, 0 = no effect, 100 = complete control
[24] = 125 g ai/ha, visual rating after approx. 10 d, 0 to 100 scale where 0 is no effect and 100 is complete control
[25] = 500 g ai/ha, 0 to 100 scale, 0 = no effect, 100 = complete control
[26] = 125 g ai/ha, visual injury after approximately 10 d, 0 to 100 scale (0 no effect, 100 complete control)
[27] = 500 g ai/ha, visual injury, 0 to 100 scale (0 no effect, 100 complete control), approx. 10 d
[28] = 125 g ai/ha, postemergence, visual rating after approx. 10 d, 0 to 100 scale (0 no effect, 100 complete control)
[29] = 500 g ai/ha, postemergence, visual injury, 0 to 100 scale (0 no effect, 100 complete control), approx. 10 d
[30] = 125 g ai/ha, preemergence, 0 to 100 scale (0 no effect, 100 complete control)
[31] = Preemergence, 500 g ai/ha, 0 is no effect, 100 is complete control
[32] = 125 g ai/ha, 0 to 100 scale (0 no effect, 100 complete control)
[33] = 500 g ai/ha, 0 to 100 scale, 0 no effect, 100 complete control
[34] = 500 g ai/ha, postemergence, 0 to 100 scale, 0 no effect, 100 complete control
[35] = Postemergence, 125 g ai/ha, visual injury, 0 to 100 scale (0 no effect, 100 complete control), approx. 10 d
[36] = Preemergence, 500 g ai/ha, visual injury approx. 10 d
[37] = 125 g ai/ha, postemergence, visual injury rating on 0 to 100 scale (0 no effect, 100 complete control), approx. 10 d

O=C1NCC(c2cccc(OC(F)(F)C(F)F)c2)C1C(=O)Nc1ccccc1F (racemic) [Compound 695]
30: Plant response rating, Kochia [1, 22] | Plant response rating, Pigweed [4, 24] | Plant response rating, Ryegrass, Italian [6, 25] | Plant response rating, Kochia [8, 26] | Plant response rating, Pigweed [13, 27]
50: Plant response rating, Galium [7, 26] | Plant response rating, Kochia [8, 27] | Plant response rating (scale of 0 to 100), Pigweed ([21]; 31 g ai/ha, 0 is no effect, 100 is complete control)
100: Plant response rating, Ducksalad ([18]; 500 g ai/ha)
60: Plant response rating, Pigweed ([21]; 62 g ai/ha)
90: Plant response rating, Kochia [1, 23] | Plant response rating, Barnyardgrass [2, 22] | Plant response rating, Barnyardgrass [2, 23] | Plant response rating, Foxtail, Giant [3, 22] | Plant response rating, Foxtail, Giant [3, 23] | Plant response rating, Barnyardgrass [9, 29]
0: Plant response rating, Blackgrass [10, 28] | Plant response rating, Ryegrass, Italian [15, 26] | Plant response rating, Rice ([19]; 500 g ai/ha) | Plant response rating, Sedge, Umbrella ([20]; 500 g ai/ha)
40: Plant response rating, Pigweed [4, 25] | Plant response rating, Ragweed [5, 25] | Plant response rating, Ryegrass, Italian [6, 24] | Plant response rating, Galium [7, 27] | Plant response rating, Blackgrass [10, 29] | Plant response rating, Ragweed [14, 27] | Plant response rating, Wheat [16, 27]
20: Plant response rating, Ragweed [5, 24] | Plant response rating, Pigweed [13, 26] | Plant response rating, Ragweed [14, 26] | Plant response rating, Ryegrass, Italian [15, 27] | Plant response rating, Wheat [16, 26]
70: Plant response rating, Pigweed ([21]; 250 g ai/ha)
65: Plant response rating, Pigweed ([21]; 125 g ai/ha)
80: Plant response rating, Barnyardgrass [9, 28] | Plant response rating, Corn [11, 26] | Plant response rating, Corn [11, 27] | Plant response rating, Foxtail, Giant [12, 26] | Plant response rating, Foxtail, Giant [12, 27] | Plant response rating, Barnyardgrass ([17]; 500 g ai/ha)

CN1CC(c2cccc(OC(F)(F)C(F)F)c2)C(C(=O)Nc2ccc(F)cc2F)C1=O (centres unmarked) [Compound 393]
80: Plant response rating, Barnyardgrass [9, 35] | Corn plant response rating ([11]; 125 g ai/ha, approx. 10 d) | Plant response rating, Corn [11, 33]
90: Plant response rating, Barnyardgrass [2, 30] | Barnyardgrass plant response rating (0 to 100 scale) [2, 31] | Plant response rating, Foxtail, Giant [3, 30] | Foxtail, Giant plant response rating (0 to 100 scale) [3, 31] | Plant response rating, Barnyardgrass [9, 34] | Foxtail, Giant plant response rating ([12]; 125 g ai/ha, approx. 10 d) | Plant response rating, Foxtail, Giant [12, 33] | Plant response rating, Ducksalad ([18]; 250 g ai/ha) | Plant response rating, Pigweed ([21]; 250 g ai/ha)
70: Pigweed plant response rating (0 to 100 scale) [4, 31] | Ragweed plant response rating (0 to 100 scale) [5, 31] | Galium plant response rating ([7]; 125 g ai/ha, approx. 10 d) | Plant response rating, Galium [7, 33] | Plant response rating, Blackgrass [10, 34] | Plant response rating, Pigweed [13, 33] | Plant response rating, Ryegrass, Italian [15, 33] | Plant response rating, Wheat [16, 33] | Plant response rating, Pigweed ([21]; 31 g ai/ha)
65: Plant response rating, Barnyardgrass ([17]; 250 g ai/ha)
20: Plant response rating, Ryegrass, Italian [6, 32] | Wheat plant response rating ([16]; 125 g ai/ha, approx. 10 d)
0: Plant response rating, Ragweed [5, 32] | Ragweed plant response rating ([14]; 125 g ai/ha, approx. 10 d) | Plant response rating, Ragweed [14, 33] | Plant response rating, Rice ([19]; 250 g ai/ha) | Plant response rating, Sedge, Umbrella ([20]; 250 g ai/ha)
60: Plant response rating, Kochia [1, 30] | Kochia plant response rating ([8]; 125 g ai/ha, approx. 10 d) | Plant response rating, Kochia [8, 33] | Plant response rating, Blackgrass [10, 35]
50: Kochia plant response rating (0 to 100 scale) [1, 31] | Plant response rating, Pigweed [4, 32] | Ryegrass, Italian plant response rating (0 to 100 scale) [6, 31] | Pigweed plant response rating ([13]; 125 g ai/ha, approx. 10 d)
85: Plant response rating, Pigweed ([21]; 125 g ai/ha)
75: Plant response rating, Pigweed ([21]; 62 g ai/ha)
40: Ryegrass, Italian plant response rating ([15]; 125 g ai/ha, approx. 10 d)

CN1CC(c2cccc(C(F)(F)F)c2)C(C)(C(=O)Nc2ccccc2F)C1=O (centres unmarked) [Compound 428]
90: Plant response rating, Barnyardgrass [2, 30] | Barnyardgrass plant response rating (0 to 100 scale, 0 is no effect, 100 is complete control) [2, 36] | Plant response rating, Foxtail, Giant [3, 30] | Foxtail, Giant plant response rating (0 to 100 scale, 0 is no effect, 100 is complete control) [3, 36] | Barnyardgrass plant response rating [9, 37] | Plant response rating, Barnyardgrass [9, 34] | Plant response rating, Foxtail, Giant [12, 33]
30: Ryegrass, Italian plant response rating (0 to 100 scale, 0 is no effect, 100 is complete control) [6, 36] | Kochia plant response rating ([8]; 125 g ai/ha, approx. 10 d) | Corn plant response rating ([11]; 125 g ai/ha, approx. 10 d) | Ryegrass, Italian plant response rating ([15]; 125 g ai/ha, approx. 10 d) | Plant response rating, Ryegrass, Italian [15, 33] | Wheat plant response rating ([16]; 125 g ai/ha, approx. 10 d)
10: Plant response rating, Pigweed ([21]; 31 g ai/ha)
60: Plant response rating, Galium [7, 33] | Plant response rating, Corn [11, 33] | Plant response rating, Wheat [16, 33]
0: Plant response rating, Pigweed [4, 32] | Plant response rating, Ragweed [5, 32] | Ragweed plant response rating (0 to 100 scale, 0 is no effect, 100 is complete control) [5, 36] | Pigweed plant response rating ([13]; 125 g ai/ha, approx. 10 d) | Ragweed plant response rating ([14]; 125 g ai/ha, approx. 10 d) | Plant response rating, Ragweed [14, 33] | Plant response rating, Pigweed ([21]; 62 g ai/ha) | Plant response rating, Pigweed ([21]; 125 g ai/ha)
40: Blackgrass plant response rating [10, 37] | Plant response rating, Pigweed ([21]; 250 g ai/ha)
50: Plant response rating, Kochia [1, 30] | Kochia plant response rating (0 to 100 scale, 0 is no effect, 100 is complete control) [1, 36] | Galium plant response rating ([7]; 125 g ai/ha, approx. 10 d)
70: Plant response rating, Kochia [8, 33] | Plant response rating, Blackgrass [10, 34]
80: Foxtail, Giant plant response rating ([12]; 125 g ai/ha, approx. 10 d)
20: Pigweed plant response rating (0 to 100 scale, 0 is no effect, 100 is complete control) [4, 36] | Plant response rating, Ryegrass, Italian [6, 32] | Plant response rating, Pigweed [13, 33]
